In patent publication US9322066B2, “Predictors for cancer treatment” (priority 2011, dated 2016):

Test system: relapsed or refractory, rituximab-naive or -sensitive follicular B-cell NHL
Experiment: Time to progression (TTP), Vc-R vs rituximab study, by biomarker
Assay type: in vivo, human
Set-up: TTP Median: unit not given here
Text: Non-Hodgkin lymphoma (NHL) encompasses several unique malignant lymphoid disease entities that vary in clinical behavior, morphologic appearance, immunologic, and molecular phenotype. […] A randomized, open-label, active-controlled, multicenter, multinational, prospective study to compare the efficacy and safety of the combination of bortezomib and rituximab (Vc-R) to single-agent rituximab in subjects who have relapsed or refractory, rituximab-naive or -sensitive follicular B-cell NHL was performed.
Subjects were centrally randomized to Treatment Groups A (Vc-R) or B (rituximab) in a 1:1 ratio taking into account the following stratification factors: • Follicular Lymphoma International Prognostic Index (FLIPI) score (low [0 or 1 factor], intermediate [2 factors], high [≧3 factors]); • Prior rituximab therapy (yes, no); • Time since last dose of anti-lymphoma therapy (≦1 year, >1 year); • Region (United States/Canada, European Union, Rest of World).
For single-marker association analyses and pair-wise comparisons, a log rank test and Cox proportional hazard model was utilized for assessments of PFS, TTP, and OS between the treatment groups. Kaplan-Meier curves were utilized to estimate the distribution differences between groups in the time-to-event analyses. Comparison of the response rates between the treatment groups was conducted using the Fishers exact test. Single-marker association analyses were stratified by the covariates.
For pair-wise comparison analysis, biomarker pairs were formed by combinations of two markers. A log rank test was utilized for assessments of PFS, TTP, and OS between the treatment groups in the subpopulation defined by biomarker pairs. Kaplan-Meier curves were utilized to estimate the distribution differences between groups in the time-to-event analyses. Comparison of the response rates between the treatment groups was conducted using the Fishers exact test. Methods of Analysis for the multiple biomarker comparison models can be found in section 4.6.

[1] = PSMB1/I208N: T/T, Ann Arbor Stage IV, IRC review
[2] = PSMB1/I208N: T/T, High Tumor Burden, IRC review
[3] = PSMB1/I208N: T/T, ≦65 years old, IRC review
[4] = PSMB1/P11A: C/G, Ann Arbor Stage IV, IRC review
[5] = PSMB1/P11A: C/G, High Tumor Burden, IRC review
[6] = PSMB1/P11A: C/G, ≦65 years old, IRC review
[7] = PSMB1/P193L: C/C, Ann Arbor Stage IV, IRC review
[8] = PSMB1/P193L: C/C, High Tumor Burden, IRC review
[9] = PSMB1/P193L: C/C, ≦65 years old, IRC review
[10] = PSMB2/E49X: G/G, Ann Arbor Stage IV, IRC review
[11] = PSMB2/E49X: G/G, High Tumor Burden, IRC review
[12] = PSMB2/E49X: G/G, ≦65 years old, IRC review
[13] = PSMB2/G187V: G/G, Ann Arbor Stage IV, IRC review
[14] = PSMB2/G187V: G/G, High Tumor Burden, IRC review
[15] = PSMB2/G187V: G/G, ≦65 years old, IRC review
[16] = PSMB2/L159F: C/C, Ann Arbor Stage IV, IRC review
[17] = PSMB2/L159F: C/C, High Tumor Burden, IRC review
[18] = PSMB2/L159F: C/C, ≦65 years old, IRC review
[19] = PSMB5/L206M: C/C, Ann Arbor Stage IV, IRC review
[20] = PSMB5/L206M: C/C, High Tumor Burden, IRC review
[21] = PSMB5/L206M: C/C, ≦65 years old, IRC review
[22] = PSMB5/R24C: C/C, ≦65 years old, IRC review
[23] = PSMB5/R24C: C/T, 2 Prior Lines of Therapy, IRC review
[24] = PSMB5/R24C: C/T, High Tumor Burden, IRC review
[25] = PSMB6/A234D: C/C, Ann Arbor Stage IV, IRC review
[26] = PSMB6/A234D: C/C, High Tumor Burden, IRC review
[27] = PSMB6/A234D: C/C, ≦65 years old, IRC review
[28] = PSMB6/P107A: C/C, Ann Arbor Stage IV, IRC review
[29] = PSMB6/P107A: C/C, ≦65 years old, IRC review
[30] = PSMB8/G8R: G/G, Ann Arbor Stage IV, IRC review
[31] = PSMB8/G8R: G/G, High Tumor Burden, IRC review
[32] = PSMB8/G8R: G/G, ≦65 years old, IRC review
[33] = PSMB8/R141C: C/C, Ann Arbor Stage IV, IRC review
[34] = PSMB8/R141C: C/C, High Tumor Burden, IRC review
[35] = PSMB8/R141C: C/C, ≦65 years old, IRC review
[36] = PSMB8/V182M: G/G, >1 year since last anti-lymphoma treatment, IRC review
[37] = PSMB8/V182M: G/G, Ann Arbor Stage IV, IRC review
[38] = PSMB8/V182M: G/G, High Tumor Burden, IRC review
[39] = PSMB8/V182M: G/G, ≦65 years old, IRC review
[40] = PSMB9/G9E: G/G, >1 year since last anti-lymphoma treatment, IRC review
[41] = PSMB9/G9E: G/G, Ann Arbor Stage IV, IRC review
[42] = PSMB9/G9E: G/G, High Tumor Burden, IRC review
[43] = PSMB9/G9E: G/G, ≦65 years old, IRC review
[44] = PSMB9/R60H: A/G, Male, IRC review
[45] = PSMB9/R60H: G/G, ≦65 years old, IRC review
[46] = PSMB9/V32I: C/C, >1 year since last anti-lymphoma treatment, IRC review
[47] = PSMB9/V32I: C/C, Ann Arbor Stage IV, IRC review
[48] = PSMB9/V32I: C/C, No Subgroup, IRC review
[49] = PSMB9/V32I: C/C, ≦65 years old, IRC review

rituximab
TTP Median (PSMB1/A171S: G/G, ≦65 years old, IRC review): 326
TTP Evt/N [1]: 95/127
TTP Median [1]: 278
TTP Evt/N [2]: 110/147
TTP Median [2]: 273
TTP Evt/N [3]: 131/198
TTP Median [3]: 326
TTP Evt/N [4]: 46/59
TTP Median [4]: 235
TTP Evt/N [5]: 52/72
TTP Median [5]: 253
TTP Evt/N [6]: 62/96
TTP Median [6]: 288
TTP Evt/N [7]: 95/127
TTP Median [7]: 278
TTP Evt/N [8]: 110/147
TTP Median [8]: 273
TTP Evt/N [9]: 131/198
TTP Median [9]: 326
TTP Evt/N [10]: 95/127
TTP Median [10]: 278
TTP Evt/N [11]: 110/147
TTP Median [11]: 273
TTP Evt/N [12]: 131/198
TTP Median [12]: 326
TTP Evt/N [13]: 95/127
TTP Median [13]: 278
TTP Evt/N [14]: 110/147
TTP Median [14]: 273
TTP Evt/N [15]: 131/198
TTP Median [15]: 326
TTP Evt/N [16]: 95/127
TTP Median [16]: 278
TTP Evt/N [17]: 110/147
TTP Median [17]: 273
TTP Evt/N [18]: 131/198
TTP Median [18]: 326
TTP Evt/N [19]: 95/127
TTP Median [19]: 278
TTP Evt/N [20]: 110/147
TTP Median [20]: 273
TTP Evt/N [21]: 131/198
TTP Median [21]: 326
TTP Evt/N [22]: 115/170
TTP Median [22]: 334
TTP Evt/N [23]: 8/10
TTP Median [23]: 280
TTP Evt/N [24]: 17/21
TTP Median [24]: 275
TTP Evt/N [25]: 95/127
TTP Median [25]: 278
TTP Evt/N [26]: 110/147
TTP Median [26]: 273
TTP Evt/N [27]: 131/198
TTP Median [27]: 326
TTP Evt/N [28]: 92/124
TTP Median [28]: 279
TTP Evt/N [29]: 126/189
TTP Median [29]: 330
TTP Evt/N [30]: 88/120
TTP Median [30]: 279
TTP Evt/N [31]: 104/140
TTP Median [31]: 271
TTP Evt/N [32]: 124/189
TTP Median [32]: 330
TTP Evt/N [33]: 95/127
TTP Median [33]: 278
TTP Evt/N [34]: 110/147
TTP Median [34]: 273
TTP Evt/N [35]: 131/198
TTP Median [35]: 326
TTP Evt/N [36]: 104/165
TTP Median [36]: 381
TTP Evt/N [37]: 95/127
TTP Median [37]: 278
TTP Evt/N [38]: 110/147
TTP Median [38]: 273
TTP Evt/N [39]: 131/198
TTP Median [39]: 326
TTP Evt/N [40]: 104/163
TTP Median [40]: 381
TTP Evt/N [41]: 95/126
TTP Median [41]: 278
TTP Evt/N [42]: 110/145
TTP Median [42]: 271
TTP Evt/N [43]: 131/196
TTP Median [43]: 326
TTP Evt/N [44]: 22/28
TTP Median [44]: 273
TTP Evt/N [45]: 79/119
TTP Median [45]: 330
TTP Evt/N [46]: 102/160
TTP Median [46]: 379
TTP Evt/N [47]: 93/123
TTP Median [47]: 277
TTP Median (PSMB9/V32I: C/C, High Tumor Burden, IRC Review): 273
TTP Evt/N [48]: 177/266
TTP Median [48]: 345
TTP Evt/N [49]: 129/192
TTP Median [49]: 326
